For this assay, the target named is T1, human RANKL trimer (Homo sapiens, UniProt O14788).
T1 construct: gene TNFSF11; recombinant human RANKL trimer protein from ACROBiosystems; homotrimer; amine-coupled to CM5 chip
T1 sequence (O14788 140-317 limits assumed): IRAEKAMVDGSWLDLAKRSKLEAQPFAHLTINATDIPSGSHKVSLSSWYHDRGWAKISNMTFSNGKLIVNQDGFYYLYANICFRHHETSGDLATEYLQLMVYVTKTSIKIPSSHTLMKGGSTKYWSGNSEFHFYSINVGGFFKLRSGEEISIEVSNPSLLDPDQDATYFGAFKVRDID
Briefly: SPR (Biacore T200), RANKL immobilised on CM5 chip, steady-state fit. The format is binding. (In SPR one partner is held on a chip, and binding of the other changes the refractive index at the surface.)

The record followed here is paper PMC9527314, “Structural insights into the binding of zoledronic acid with RANKL via computational simulations” (Frontiers in Molecular Biosciences, 2022).

The Kd is a measure of binding affinity in units of concentration. The low end stands for tighter binding, the high end for weaker binding. In the case of `O=P(O)(O)C(O)(Cn1ccnc1)P(=O)(O)O` [Zoledronic acid], the Kd stood at 228 µM.
